Results from patent publication US6495528B1 (SmithKline Beecham Corporation, priority 1998, dated 2002).

What was measured:
Format in all cases: cell-based
[1] = biological target: T1, human adenosine 2a receptor (Homo sapiens, UniProt P29274); test: Agonist activity at adenosine 2a receptor, CHO cells with CRE-SPAP reporter (basal cAMP); conditions: CHO cells transfected with human A2a receptor; effect on basal cAMP via SPAP; ratio to NECA; minimum values (about 20% inactive impurity)
T1 construct: expressed in transfected cells; host or cells: Chinese hamster ovary (CHO) cells, also transfected with a CRE-SPAP reporter
Method: (§1) (1) Agonist activity against adenosine 2a, adenosine 1 and adenosine 3 receptor subtypes.
(§2) Agonist selectivity of compounds against other human adenosine receptors is determined using Chinese hamster ovary (CHO) cells transfected with the gene for the relevant human adenosine receptor following a method based on that of Castanon and Spevak, 1994. The CHO cells are also transfected with cyclic AMP response elements promoting the gene for secreted placental alkaline phosphatase (SPAP) (Wood, 1995). The effect of test compounds is determined by their effects on basal levels of cAMP (A2a ) or on forskolin-enhanced cAMP (A1 and A3) as reflected by changes in levels of SPAP. EC50 values for compounds are then determined as a ratio to that of the non-selective agonist N-ethyl carboxamide adenosine (NECA).

[2] = biological target: T2, human adenosine 1 receptor (Homo sapiens, UniProt P30542); test: Agonist activity at adenosine 1 receptor, CHO cells with CRE-SPAP reporter (forskolin-enhanced cAMP); conditions: CHO cells transfected with human A1 receptor; effect on forskolin-enhanced cAMP via SPAP; ratio to NECA; minimum values (about 20% inactive impurity)
T2 construct: expressed in transfected cells; host or cells: Chinese hamster ovary (CHO) cells, also transfected with a CRE-SPAP reporter
T2 sequence (P30542 1-326): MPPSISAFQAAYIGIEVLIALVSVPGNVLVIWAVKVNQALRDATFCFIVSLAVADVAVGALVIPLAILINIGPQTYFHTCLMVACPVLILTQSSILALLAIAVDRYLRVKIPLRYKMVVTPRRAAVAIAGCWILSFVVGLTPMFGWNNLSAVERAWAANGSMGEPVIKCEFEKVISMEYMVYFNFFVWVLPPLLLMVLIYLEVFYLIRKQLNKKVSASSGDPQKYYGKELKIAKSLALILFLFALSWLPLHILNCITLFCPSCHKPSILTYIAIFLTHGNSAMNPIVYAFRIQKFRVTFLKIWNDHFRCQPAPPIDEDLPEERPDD
Method: as §1, §2

[3] = biological target: T3, human adenosine 3 receptor (Homo sapiens, UniProt P0DMS8); test: Agonist activity at adenosine 3 receptor, CHO cells with CRE-SPAP reporter (forskolin-enhanced cAMP); conditions: CHO cells transfected with human A3 receptor; effect on forskolin-enhanced cAMP via SPAP; ratio to NECA; minimum values (about 20% inactive impurity)
T3 construct: expressed in transfected cells; host or cells: Chinese hamster ovary (CHO) cells, also transfected with a CRE-SPAP reporter
T3 sequence (P0DMS8 1-318): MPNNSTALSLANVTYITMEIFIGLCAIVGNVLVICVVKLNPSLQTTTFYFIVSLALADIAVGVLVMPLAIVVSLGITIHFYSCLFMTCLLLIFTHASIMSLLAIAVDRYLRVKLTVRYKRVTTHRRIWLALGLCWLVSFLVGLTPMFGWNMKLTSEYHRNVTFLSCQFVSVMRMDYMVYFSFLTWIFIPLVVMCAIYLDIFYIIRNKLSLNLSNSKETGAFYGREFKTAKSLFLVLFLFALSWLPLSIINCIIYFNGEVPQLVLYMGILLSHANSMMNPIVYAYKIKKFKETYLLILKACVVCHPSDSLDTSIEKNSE
Method: as §1, §2

T1 sequence (P29274 whole entry): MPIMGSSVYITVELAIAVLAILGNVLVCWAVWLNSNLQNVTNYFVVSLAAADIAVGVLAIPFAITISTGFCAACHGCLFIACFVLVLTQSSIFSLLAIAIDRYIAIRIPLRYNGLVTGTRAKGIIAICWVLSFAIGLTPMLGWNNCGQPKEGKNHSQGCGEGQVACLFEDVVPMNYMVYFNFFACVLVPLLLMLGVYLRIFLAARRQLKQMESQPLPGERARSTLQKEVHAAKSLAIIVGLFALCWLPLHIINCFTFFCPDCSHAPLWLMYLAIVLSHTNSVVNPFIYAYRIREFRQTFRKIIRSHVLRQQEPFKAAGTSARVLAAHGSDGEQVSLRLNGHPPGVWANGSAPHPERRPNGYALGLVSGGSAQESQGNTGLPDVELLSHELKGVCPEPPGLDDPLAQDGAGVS

Row | Compound | A2a EC50 as a ratio of that of NECA [1] | A1 EC50 as a ratio of that of NECA [2] | A3 EC50 as a ratio of that of NECA [3]
1 | CC(=O)OCCn1nnc(C2OC(n3cnc4c(NCC(c5ccccc5)c5ccccc5)nc(NCCN5CCCCC5)nc43)C(O)C2O)n1 (stereo not drawn) [Example 3, Acetic acid 2-(5-{5R-[6-(2,2-diphenyl-ethylamino)-2-(2-piperidin-1-yl-ethylamino)-purin-9-yl]-3S,4R-dihydroxy-tetrahydro-furan-2R -yl}-tetrazol-2-yl)-ethyl ester bis(trifluoroacetate)] | 16.59 | 310.5 | >93
2 | O=C(O)C(F)(F)F.O=C(O)C(F)(F)F.O[C@@H]1[C@H](O)[C@@H](c2nnn(CC3CC3)n2)O[C@H]1n1cnc2c(NCC(c3ccccc3)c3ccccc3)nc(NCCN3CCCCC3)nc21 [Example 4] | 37.24 | 1318.09 | >93
3 | O=C(O)C(F)(F)F.O=C(O)C(F)(F)F.O[C@@H]1[C@H](O)[C@@H](c2nnn(CCCl)n2)O[C@H]1n1cnc2c(NCC(c3ccccc3)c3ccccc3)nc(NCCN3CCCCC3)nc21 [Example 6] | 24.05 | 411.9 | >97
4 | O=C(O)C(F)(F)F.O=C(O)C(F)(F)F.O[C@@H]1[C@H](O)[C@@H](c2nnn(C3CCC3)n2)O[C@H]1n1cnc2c(NCC(c3ccccc3)c3ccccc3)nc(NCCN3CCCCC3)nc21 [Example 7] | 22.98 | 597.82 | >95
5 | C=CCn1nnc(C2OC(n3cnc4c(NCC(c5ccccc5)c5ccccc5)nc(NCCN5CCCCC5)nc43)C(O)C2O)n1 [Example 8, (2R,3S,4R,5R)-2-(2-Allyl 2H-tetrazol-5-[6-(2,2-diphenyl-ethylamino)-2-(2-piperidin-1-yl-ethylamino)-purin-9-yl]-tetrahydro-furan-3,4-diolbis(trifluoroacetate)] | 26.38 | >6131 | >165

Next, values leading:

Row | A2a EC50 as a ratio of that of NECA [1] | A1 EC50 as a ratio of that of NECA [2] | A3 EC50 as a ratio of that of NECA [3] | Compound
6 | 22.64 | 434.8 | >93 | OCCCn1nnc(C2OC(n3cnc4c(NCC(c5ccccc5)c5ccccc5)nc(NCCN5CCCCC5)nc43)C(O)C2O)n1 [Example 1, 2R,3R,4S,5R)-2-[6-(2,2-Diphenyl-ethylamino)-2-(2-piperidin-1-yl-ethylamino)-purin-9-yl]-5-[2-(3-hydroxy-propyl)-2H-tetrazol-5-yl]-tetrahydro-furan-3,4-diol bis(trifluoroacetate)]
7 | 30.95 | 755.4 | >93 | CCCn1nnc(C2OC(n3cnc4c(NCC(c5ccccc5)c5ccccc5)nc(NCCN5CCCCC5)nc43)C(O)C2O)n1 [Example 2, 2R,3R,4S,5R)-2-[6-(2,2-Diphenyl-ethylamino)-2-(2-piperidin-1-yl-ethylamino)-purin-9-yl]-5-(2-propyl-2H-tetrazo-5-tetrahydro-furan-3,4-diol bis(trifluoroacetate)]
8 | 10.54 | 159.5 | >94 | OCCn1nnc(C2OC(n3cnc4c(NCC(c5ccccc5)c5ccccc5)nc(NCCN5CCCCC5)nc43)C(O)C2O)n1 [Example 5, (2R,3R,4S,5R)-2-[6-(2,2-Diphenyl-ethylamino)-2-(2-piperidin-1-yl-ethylamino)-purin-9-yl]-5-[2-(2-hydroxy-ethyl)-2H-tetrazo-5-yl]-tetrahydro-furan-3,4-diol bis(trifluoroacetate)]
